Columns and labels:
[1] = biological target: T1, 3-oxoacyl-[acyl-carrier-protein] synthase 3 (Mycobacterium tuberculosis (strain ATCC 25618 / H37Rv), UniProt P9WNG3); experiment: Inhibitory activity against FabH from Mycobacterium tuberculosis H37Rv
T1 sequence (P9WNG3 whole entry): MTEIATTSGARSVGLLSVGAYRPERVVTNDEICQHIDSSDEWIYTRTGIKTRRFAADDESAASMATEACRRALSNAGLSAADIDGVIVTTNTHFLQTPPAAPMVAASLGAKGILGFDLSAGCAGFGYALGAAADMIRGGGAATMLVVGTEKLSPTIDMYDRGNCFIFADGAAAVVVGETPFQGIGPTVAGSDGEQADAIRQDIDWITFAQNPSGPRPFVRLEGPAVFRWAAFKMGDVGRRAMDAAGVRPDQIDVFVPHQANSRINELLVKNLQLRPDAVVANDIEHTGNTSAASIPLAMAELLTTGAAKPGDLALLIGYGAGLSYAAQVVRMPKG

[2] = biological target: T2, 3-oxoacyl-[acyl-carrier-protein] synthase 3 (Escherichia coli, UniProt C3TDZ2); experiment: Inhibitory activity against FabH from Escherichia coli ANSI
T2 sequence (C3TDZ2 whole entry): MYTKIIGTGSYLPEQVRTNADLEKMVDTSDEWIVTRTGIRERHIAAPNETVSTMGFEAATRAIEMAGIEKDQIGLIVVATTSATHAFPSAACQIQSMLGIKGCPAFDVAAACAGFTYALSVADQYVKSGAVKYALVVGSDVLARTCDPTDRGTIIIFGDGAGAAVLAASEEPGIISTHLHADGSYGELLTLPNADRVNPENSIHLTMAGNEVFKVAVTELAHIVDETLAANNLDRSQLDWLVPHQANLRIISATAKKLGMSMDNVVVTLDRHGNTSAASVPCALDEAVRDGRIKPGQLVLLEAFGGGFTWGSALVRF

[3] = biological target: T3, 3-oxoacyl-[acyl-carrier-protein] synthase 1 (Escherichia coli (strain K12), UniProt P0A953); experiment: Inhibitory activity against FabB from Escherichia coli ANSI
T3 sequence (P0A953 whole entry): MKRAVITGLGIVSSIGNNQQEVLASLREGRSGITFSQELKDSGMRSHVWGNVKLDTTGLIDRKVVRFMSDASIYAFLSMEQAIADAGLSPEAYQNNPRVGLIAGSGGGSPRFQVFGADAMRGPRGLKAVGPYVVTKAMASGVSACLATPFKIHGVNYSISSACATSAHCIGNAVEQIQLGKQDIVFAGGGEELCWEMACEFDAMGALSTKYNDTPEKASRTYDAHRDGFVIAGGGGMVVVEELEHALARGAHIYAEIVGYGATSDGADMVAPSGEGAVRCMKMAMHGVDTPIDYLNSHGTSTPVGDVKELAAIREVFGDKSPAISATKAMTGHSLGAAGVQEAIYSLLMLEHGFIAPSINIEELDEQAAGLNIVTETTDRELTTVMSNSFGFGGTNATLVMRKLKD

[4] = biological target: T4, 3-oxoacyl-[acyl-carrier-protein] synthase 2 (Mycobacterium tuberculosis (strain ATCC 25618 / H37Rv), UniProt P9WQD7); experiment: Inhibitory activity against KasB from Mycobacterium tuberculosis H37Rv
T4 sequence (P9WQD7 whole entry): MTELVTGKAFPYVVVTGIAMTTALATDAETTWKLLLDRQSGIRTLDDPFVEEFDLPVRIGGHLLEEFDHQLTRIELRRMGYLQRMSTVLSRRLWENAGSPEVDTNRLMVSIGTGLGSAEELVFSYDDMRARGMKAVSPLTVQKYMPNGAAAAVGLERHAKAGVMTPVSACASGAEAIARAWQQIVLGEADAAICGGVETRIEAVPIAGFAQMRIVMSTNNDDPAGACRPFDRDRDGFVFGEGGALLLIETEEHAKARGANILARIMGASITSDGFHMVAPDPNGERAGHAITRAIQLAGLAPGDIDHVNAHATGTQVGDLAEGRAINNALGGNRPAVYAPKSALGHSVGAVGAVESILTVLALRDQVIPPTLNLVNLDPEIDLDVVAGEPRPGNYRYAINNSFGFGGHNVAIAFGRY

## Cc1cccc(CC2(C)SC(=O)C(C)C2=O)c1 (stereo not given) [3,5-dimethyl-4-hydroxy-5-(3-methylbenzyl)-5H-thiophen-2-one]
[1]
  IC50: > 1000 µM
[2]
  IC50: > 1000 µM
[3]
  IC50: > 1000 µM
[4]
  IC50: > 1000 µM

## CC1C(=O)SC(C)(Cc2ccc([N+](=O)[O-])cc2)C1=O (stereo not given) [3,5-dimethyl-4-hydroxy-5-(4-nitrobenzyl)-5H-thiophen-2-one]
[1]
  IC50: > 1000 µM
[2]
  IC50: > 1000 µM
[3]
  IC50: > 1000 µM
[4]
  IC50: > 1000 µM

## CCCCCCCCCCCCCCC1(C)SC(=O)C(C)C1=O (stereo not given) [3,5-dimethyl-4-hydroxy-5-tetradecyl-5H-thiophen-2-one]
[1]
  IC50: 80 µM
[2]
  IC50: 100 µM
[3]
  IC50: > 100 µM

## CCCCCC(C)C1(C)SC(=O)C(C)C1=O (stereo not given) [3,5-dimethyl-4-hydroxy-5-(1-methylhexyl)-5H-thiophen-2-one]
[1]
  IC50: > 1000 µM
[2]
  IC50: > 1000 µM
[3]
  IC50: > 1000 µM
[4]
  IC50: > 1000 µM

## CC/C=C/CC1(C)SC(=O)C(C)C1=O (stereo not given) [3,5-dimethyl-4-hydroxy-5-((E)-pent-2-enyl)-5H-thiophen-2-one]
[1]
  IC50: > 1000 µM
[2]
  IC50: > 1000 µM
[3]
  IC50: > 1000 µM
[4]
  IC50: > 1000 µM

## C=CCCCCCCC1(C)SC(=O)C(C)C1=O (stereo not given) [3,5-dimethyl-4-hydroxy-5-oct-7-enyl-5H-thiophen-2-one]
[1]
  IC50: > 1000 µM
[2]
  IC50: > 1000 µM
[3]
  IC50: > 1000 µM
[4]
  IC50: > 1000 µM

## CC1C(=O)SC(C)(CC2CCCCC2)C1=O (stereo not given) [5-cyclohexylmethyl-3,5-dimethyl-4-hydroxy-5H-thiophen-2-one]
[1]
  IC50: > 1000 µM
[2]
  IC50: > 1000 µM
[3]
  IC50: > 1000 µM
[4]
  IC50: > 1000 µM

## CC1C(=O)SC(C)(Cc2ccc(C(F)(F)F)cc2)C1=O (stereo not given) [3,5-dimethyl-4-hydroxy-5-(4-trifluoromethylbenzyl)-5H-thiophen-2-one]
[1]
  IC50: > 100 µM

## CC1C(=O)SC(C)(Cc2ccc(Cl)cc2)C1=O (stereo not given) [5-(4-chlorobenzyl)-3,5-dimethyl-4-hydroxy-5H-thiophen-2-one]
[1]
  IC50: > 100 µM
[2]
  IC50: > 1000 µM
[3]
  IC50: > 1000 µM
[4]
  IC50: > 1000 µM

## CC1C(=O)SC(C)(CC2CC2)C1=O (stereo not given) [5-cyclopropylmethyl-3,5-dimethyl-4-hydroxy-5H-thiophen-2-one]
[2]
  IC50: > 100 µM

## CCCCCCCCCCC1(C)SC(=O)C(C)C1=O (stereo not given) [5-Decyl-4-hydroxy-3,5-dimethyl-5H-thiophen-2-one]
[1]
  IC50: > 100 µM
[2]
  IC50: 100 µM

## CCCCCCCCCCCC1(C)SC(=O)C(C)C1=O (stereo not given) [3,5-dimethyl-4-hydroxy-5-undecyl-5H-thiophen-2-one]
[2]
  IC50: > 100 µM
[3]
  IC50: > 1000 µM
[4]
  IC50: > 1000 µM

## CCCCCCCCCCCCCC1(C)SC(=O)C(C)C1=O (stereo not given) [3,5-dimethyl-4-hydroxy-5-tridecyl-5H-thiophen-2-one]
[1]
  IC50: 80 µM
[2]
  IC50: 100 µM
[3]
  IC50: > 100 µM

## CCCCCCCCC1(C)SC(=O)C(C)C1=O (stereo not given) [4-Hydroxy-3,5-dimethyl-5-octyl-5H-thiophen-2-one]
[1]
  IC50: > 100 µM
[2]
  IC50: > 100 µM

## CC1C(=O)SC(C)(C2CCCCC2)C1=O (stereo not given) [5-cyclohexyl-3,5-dimethyl-4-hydroxy-5H-thiophen-2-one]
[1]
  IC50: > 100 µM

## CC1C(=O)SC(C)(Cc2ccc(Cl)c(Cl)c2)C1=O (stereo not given) [5-(3,4-dichlorobenzyl)-3,5-dimethyl-4-hydroxy-5H-thiophen-2-one]
[1]
  IC50: > 100 µM
[2]
  IC50: > 100 µM

## CCC(C)C1(C)SC(=O)C(C)C1=O (stereo not given) [3,5-dimethyl-4-hydroxy-5-(1-methylpropyl)-5H-thiophen-2-one]
[1]
  IC50: > 100 µM

## CC1C(=O)SC(C)(Cc2ccc(Cl)cc2Cl)C1=O (stereo not given) [5-(2,4-dichlorobenzyl)-3,5-dimethyl-4-hydroxy-5H-thiophen-2-one]
[1]
  IC50: > 100 µM

## CC(C)=CCC/C(C)=C/CC1(C)SC(=O)C(C)C1=O (stereo not given) [5-((E)-3,7-Dimethyl-octa-2,6-dienyl)-4-hydroxy-3,5-dimethyl-5H-thiophen-2-one]
[2]
  IC50: 100 µM

## CC[C@H](C)CC1(C)SC(=O)C(C)C1=O (stereo partly drawn) [3,5-dimethyl-4-hydroxy-5-((S)2-methylbutyl)-5H-thiophen-2-one]
[2]
  IC50: > 100 µM

From BindingDB's records for doi:10.1021/jm050825p (National Institute of Allergy and Infectious Diseases, 2006)
